Laboratory results: US9572881B2, “Halogenated compounds for photodynamic therapy” (Nanoquantum Sciences, Inc., priority 2012, dated 2017)
Where “and” joins values, the source holds several entries; their conditions need not be identical. Identical values can stand only once.

Tests used:
[1] = Absorption spectra and extinction coefficients of dyes; assay type: physicochemical
Description: Absorption spectra were measured at RT on a Perking Elmer Lambda 35 UV/Vis spectrophotometer. […] The stock solution was diluted (1:2000) and the absorbance was measured in a 5-cm standard quartz cell. All dye concentrations were in the range of 1.1 to 2.0×10^−7 M. The extinction coefficients were calculated according to Lambert-Beer's law.

[2] = Fluorescence emission spectra and quantum yield relative to HITC; assay type: physicochemical; conditions: for QY (fluor): given as fraction in synthesis example
Description: Fluorescence spectra for the dyes were determined at RT on a Varian Cary Eclipse spectrofluorometer in a standard 1-cm quartz cell. The spectra were corrected. All concentrations of the fluorophores were chosen to be between 0.2 and 1.0 μM.
For the determination of the quantum yields (QY), the integrated relative intensities of the dyes or dye-protein conjugates, were measured against HITC as the reference. All absorbances at excitation wavelength (λexc) were in the range of 0.04-0.08 (when measured in a 1-cm cell).
The QY of each sample was independently measured 3-4 times and the average value was calculated.

[3] = Phototoxicity (glow lamp) and dark toxicity by hemolysis of bovine erythrocytes; assay type: cell-based; conditions: bovine, bovine erythrocytes, Glow Lamp; for hemolysis at 30 min, 0.5 µM: exposure 30 min
Description: (§1) Bovine erythrocytes were isolated from blood plasma stored with sodium citrate. 1 mL of bovine blood was treated at centrifuge (3,000 rpm) for 10 min to precipitate erythrocytes. The supernatant was decanted, 2 mL of physiological solution were added, treated and erythrocytes were precipitated with centrifuge. The washing procedure was repeated for 3 times and the precipitated erythrocytes were collected. […] Cells were dye-incubated for 45 minutes at 37° C. in the dark. Then the examined suspensions of cells (erythrocytes) were placed at a distance of 30-cm from a 250 W glow red-lamp equipped with a water-based heat filter and irradiated with occasional stirring. After irradiation, cells were stored at 4° C. for 15 hours. […] The hemolysis level (percentage of hemolyzed cells) was determined as the ratio of absorbances of the supernatant and a solution of 100% hemolysed cells. The 100% hemolysis was taken as the value obtained when the given number of erythrocytes were suspended in distilled water.

bovine erythrocytes = assay: as above; assay type: cell-based; conditions: Dark
Description: as §1

[4] = Singlet oxygen quantum yield, DPBF scavenger method in ethanol; assay type: physicochemical; conditions: measured in ethanol, 650 nm laser, ICG reference
Description: The modified relative photochemical method of Spiller W. et al. (J. Porphyrins Phthalocyanines, 1998, V. 2, 145-158) utilizing 1,3-diphenylisobenzofuran (DPBF) as a chemical scavenger was used to determine the photosensitiser's singlet oxygen quantum yields (ΦΔ) in ethanol solutions.
Ethanolic solutions containing DPBF (10 μM) and sensitizers with absorbance (optical density) in a range between 0.09 and 0.10 at 650 nm (measured in a standard 1-cm quartz cell) were prepared. Samples were saturated with oxygen by bubbling. Next, 3 mL of the solution were placed in a 1-cm cell equipped with a stirring bar and a 10 mW, 650 nm diode laser was hermetically attached to the top of cuvette so as to avoid solvent evaporation and to provide a light beam direction from top to bottom of the cuvette. The solution in the cuvette was irradiated with the diode laser under continuous stirring for a certain time. DPBF consumption was determined by monitoring DPBF bleaching over irradiation time using absorption spectroscopy at 411 nm (extinction coefficient 22,000 M^−1 cm^−1). At least six absorption spectra were obtained for each solution at different irradiation times until the DPBF absorbance reduced at least to the 10% of the initial absorbance.
The decrease of DPBF absorbance at 411 nm versus irradiation time was plotted for each photosensitizer and the DPBF degradation rate constant (K) characterizing the reaction rate of singlet oxygen with DPBF in presence of a sensitizer was calculated.

[5] = cited from earlier work
[6] = ethanol; reference value from Cardillo et al.; cited from earlier work
[7] = background statement, at ~780 nm; cited from earlier work

Row | SMILES | Absorption max. ([1]; Methanol) | Emission max. ([2]; Methanol) [nm] | Fluorescence quantum yield ([2]; Methanol) [%] | Hemolysis (bovine erythrocytes; 5 μM) [%] | Hemolysis (bovine erythrocytes; 10 μM) [%] | Singlet oxygen generation quantum yield ΦΔ [4] [%] | Absorption max. ([1]; Water) | Emission max. ([2]; Water) [nm] | hemolysis at 60 min, 0.1 µM ([3]; exposure 60 min) [%] | hemolysis at 30 min, 0.5 µM [3] [%] | Hemolysis (bovine erythrocytes; 50 μM) [%] | QY (fluor) ([2]; methanol) | Extinction Coefficient ([1]; Methanol) | Extinction Coefficient ([1]; Water) | other results
1 | CN1\C(=C/C=C/C=C/C=C/C2=[N+](C)c3ccccc3C2(C)C)C(C)(C)c2ccccc21.[I-] [HITC, 1,1′,3,3,3′,3′-hexamethylindotricarbocyanine, reference compound] | 740 nm | 768 | 28 | 2.0 | 6.7 | 5 | – | – | – | – | – | – | – | – | hemolysis at 60 min, 1 µM ([3]; 1 μM, exposure 60 min): 4.4%; hemolysis at 120 min, 1 µM ([3]; 1 μM, exposure 120 min): 5.4%; hemolysis at 60 min, 5 µM ([3]; 5 μM, exposure 60 min): 65%; hemolysis at 120 min, 5 µM ([3]; 5 μM, exposure 120 min): 74%; QY of reference ([5]; in methanol, reference standard): 28%
2 | CN1\C(=C/C=C/C=C/C=C/C2=[N+](C)c3ccc(I)cc3C2(C)C)C(C)(C)c2cc(I)ccc21.[I-] [I-25] | 753 nm | 784 | 30 | – | – | 20 | 750 nm | 779 | 39 | 83 | 51 | – | – | – | Absorption max. ([1]; Chloroform): 771 nm; Emission max. ([2]; Chloroform): 801 nm
3 | CN1\C(=C/C=C/C=C/C=C/C2=[N+](C)c3cc(I)cc(I)c3C2(C)C)C(C)(C)c2c(I)cc(I)cc21.[I-] [I-71, 2-[7-(4,6-diiodo-1,3,3-trimethyl-2,3-dihydro-1H-2-indolyliden)-1,3,5-heptatrienyl]-4,6-diiodo-1,3,3-trimethyl-3H-indolium iodide] | 745 nm | 773 | 46 | 2 | – | 19 | – | – | 21 | 75 | 30 | 0.46 | – | – | –
4 | CN1\C(=C/C=C/C=C/C=C/C2=[N+](C)c3cc(I)c(I)c(I)c3C2(C)C)C(C)(C)c2c1cc(I)c(I)c2I.[I-] [I-76, 4,5,6-triiodo-1,3,3-trimethyl-2-[7-(4,5,6-triiodo-1,3,3-trimethyl-2,3-dihydro-1H-2-indolyliden)-1,3,5-heptatrienyl]-3H-indolium iodide] | 754 nm and 755 nm | 785 | 43 | 2 | – | 50 | – | – | 43 | 46 | 12 | – | – | – | –
5 | CC1(CCCCCC(=O)O)C(/C=C/C=C/C=C/C=C2\N(CCCS(=O)(=O)O)c3cc(I)c(I)c(I)c3C2(C)CCCCCC(=O)O)=[N+](CCCS(=O)(=O)[O-])c2cc(I)c(I)c(I)c21 (centres unmarked) [I-86, 3-(3-(5-carboxypentyl)-2-7-[3-(5-carboxypentyl)-4,5,6-triiodo-3-methyl-1-(3-sulfopropyl)-2,3-dihydro-1H-2-indolyliden]-1,3,5-heptatrienyl-4,5,6-triiodo-3-methyl-3H-1-indoliumyl)-1-propanesulfonate] | 765 nm | 795 | 44 | – | 3 | 13 | 721 nm and 760 nm | 786 | 70 | 74 | – | 0.44 | 210,000 M^−1cm^−1 | 100,000 M^−1cm^−1 | Absorption max. ([1]; BSA conjugate): 778 nm; Extinction coefficient ε at λmax (abs) ([1]; water, synthesis example, no unit): 210,000; Emission max. ([2]; BSA conjugate): 796 nm; Fluorescence quantum yield ([2]; BSA conjugate, subject to D/P): 5-7%; QY (fluor) ([2]; water): 0.006
6 | CC1(C)C(/C=C/C=C/C=C/C=C2\N(CCCCS(=O)(=O)[O-])c3ccc4ccccc4c3C2(C)C)=[N+](CCCCS(=O)(=O)[O-])c2ccc3ccccc3c21.[Na+] [ICG, Indocyanine green, reference compound] | – | 818 | 16 | – | – | 12 | – | 810 | – | – | – | – | 200,000 M^−1cm^−1 | 114,000 M^−1cm^−1 | quantum yield (reporter) ([5]; in water, background statement): 0.5-1.3%; singlet oxygen quantum yield ΦΔ of reference [6]: 12%; extinction coefficients [7]: 200,000 M^−1 cm^−1
